According to article PMC3388857, “Synthesis and antiviral activities of spacer-linked 1-thioglucuronide analogues of glycyrrhizin” (Beilstein Journal of Organic Chemistry, 2012):

How the values were obtained:
influenza A H3N2 virus = assay: Antiviral activity in influenza A virus-infected MDCK cells (prevention of virus-induced cytopathicity, CellTiter-Glo, 48 h); assay type: cell-based, influenza A virus A/Aichi/2/68 (H3N2); settings: for IC50: Influenza A virus, H3N2, MDCK, 48 h, MDCK cells infected with influenza A H3N2, MOI 0.05, compound added with virus, read-out: IC50 (half-maximal inhibitory concentration, antiviral activity); for fold more active compared to GL: ratio of antiviral IC50 values versus lead compound GL; for antiviral activity (in words): influenza A H3N2-infected MDCK cells, up to 250 µM
Procedure: For biological testing the compounds were dissolved in DMSO and diluted in cell culture medium to a maximum final DMSO concentration of 1%. For determination of the cytotoxicity of the compounds, MDCK cells were treated with compound concentrations ranging from 3.1 µM to 250 µM for 48 h and then cell viability was determined as a surrogate endpoint for cytotoxicity. […] GL was not toxic at 2500 µM (Table 1). The antiviral activity of the compounds was determined by infecting MDCK cells with influenza A H3N2 virus and treating them with different concentrations of compounds at the same time. […] Compound 16 containing only the N-succinyl substituent is a close analogue to CBX bearing an amide instead of the ester group. […] This was further supported by the data obtained with compound 23 containing a 1-thioethyl-linked glucuronic acid residue at position 3 of 1,2-dehydro-glycyrrhetinic acid.
The influenza A virus (IAV) was obtained from American Tissue Culture Collection (A/Aichi/2/68 (H3N2); VR-547). Virus stocks were prepared by propagation of virus on Mardin-Darby canine kidney (MDCK; ATCC CCL-34) cells and infectious titers of virus stocks were determined by the 50% tissue culture infective dose (TCID50) analysis as described in [5].
MDCK cells were seeded in 96-well plates at 2×10^4 cells/well using DMEM/Ham’s F-12 (1:1) medium containing 10% foetal bovine serum (FBS), 2 mM L-glutamine and 1% antibiotic– antimycotic solution (penicillin, 10.000 units/mL; streptomycin, sulfate 10 mg/mL; Amphotericin B, 25 µg/ml) (all from PAA). Until infection the cells were incubated for 5 h at 37 °C/5.0% CO2 to form a ~80% confluent monolayer on the bottom of the well. Test compounds were dissolved in DMSO and dilution series were prepared in infection medium (DMEM/Ham’s F-12 (1:1) containing 5 µg/mL trypsin (Sigma T4945), and 1% antibiotic–antimycotic solution) resulting in a final plate well DMSO concentration of 1%. The virus stock was generally diluted in infection medium (DMEM/Ham’s F-12 (1:1) containing 5 µg/mL trypsin, 1% DMSO, and 1% antibiotics) to a theoretical multiplicity of infection (MOI) of 0.05. After removal of the culture medium and one washing step with PBS, the virus and compound solution were added together to the cells. In the wells used for cytotoxicity determination (uninfected cells), the virus suspension was replaced by infection medium. Each treatment was conducted in two replicates. After incubation at 37 °C, […]
formation, or other notable abnormalities. Then, cell viability was determined by using CellTiter-Glo luminescent cell viability assay (Promega). The supernatant was removed carefully and 65 µL of the reconstituted reagent was added to each well and incubated for 15 min at room temperature under gentle shaking. Then, 60 µL of the solution was transferred to an opaque plate and luminescence (RLU) was measured by using a Synergy HT plate reader (Biotek). The […]
compounds were titrated on virus-infected MDCK cells and the response (RLU) was used to determine the IC50 value by using a 4-parameter logistic equation (GraphPad Prism) whereby the top and bottom of the curve were defined by the response (RLU) of untreated uninfected cells and untreated infected cells, respectively. The cytotoxicity of the compounds was determined by titration on uninfected MDCK cells, and the response (RLU) was used to determine the CC50 value by using a 4-parameter logistic equation whereby the top of the curve was defined by the response (RLU) of untreated uninfected cells. […]

in vitro = settings: dog, CC50 (cytotoxic concentration 50%), compound-treated uninfected MDCK cells, 48 h, cell viability
MDCK cells = settings: uninfected MDCK cells, 3.1 µM to 250 µM, 48 h

SMILES | IC50 (influenza A H3N2 virus) | CC50 (in vitro) | fold more active compared to GL (influenza A H3N2 virus) | antiviral activity (in words) (influenza A H3N2 virus) | cytotoxicity (in words) (MDCK cells)
CC1(C)C2CC[C@]3(C)C(C(=O)C=C4[C@@H]5C[C@@](C)(C(=O)O)CC[C@]5(C)CC[C@]43C)[C@@]2(C)CC[C@@H]1NCCS[C@@H]1O[C@H](C(=O)O)[C@@H](O)[C@H](O)[C@H]1O (some centres unmarked) [Compound 13] | > 250 µM | > 250 µM |  |  | 
COC(=O)[C@H]1O[C@@H](SCCN[C@H]2CC[C@@]3(C)C(CC[C@]4(C)C3C(=O)C=C3[C@@H]5C[C@@](C)(C(=O)O)CC[C@]5(C)CC[C@]34C)C2(C)C)[C@H](O)[C@@H](O)[C@@H]1O (some centres unmarked) [Compound 12] | 220 ± 41 µM | > 250 µM | 4.7 fold |  | 
CC(=O)N(CCS[C@@H]1O[C@H](C(=O)O)[C@@H](O)[C@H](O)[C@H]1O)[C@H]1CC[C@@]2(C)C(CC[C@]3(C)C2C(=O)C=C2[C@@H]4C[C@@](C)(C(=O)O)CC[C@]4(C)CC[C@]23C)C1(C)C (some centres unmarked) [Compound 15] | 87 ± 7.9 µM | > 250 µM |  | IC50 value in the same range as the methyl ester 14 | 
CC1(C)C2CC[C@]3(C)C(C(=O)C=C4[C@@H]5C[C@@](C)(C(=O)O)CC[C@]5(C)CC[C@]43C)[C@@]2(C)CC[C@@H]1N(CCS[C@@H]1O[C@H](C(=O)O)[C@@H](O)[C@H](O)[C@H]1O)C(=O)CCC(=O)O (some centres unmarked) [Compound 19] | > 250 µM | > 250 µM |  |  | 
CC1(C)C(SCCS[C@@H]2O[C@H](C(=O)O)[C@@H](O)[C@H](O)[C@H]2O)C=C[C@@]2(C)C1CC[C@]1(C)C2C(=O)C=C2[C@@H]3C[C@@](C)(C(=O)O)CC[C@]3(C)CC[C@]21C (some centres unmarked) [Compound 23] | 54 ± 13 µM | > 250 µM |  |  | no cytotoxicity at the concentrations tested
CC1(C)[C@@H](O)CC[C@]2(C)[C@H]3C(=O)C=C4[C@@H]5C[C@@](C)(C(=O)O)CC[C@]5(C)CC[C@@]4(C)[C@]3(C)CC[C@@H]12 [GA, glycyrrhetinic acid, reference compound] |  | 7.4 ± 0.05 µM |  | did not show any antiviral activity at nontoxic concentrations | 
COC(=O)CCC(=O)N(CCS[C@@H]1O[C@H](C(=O)OC)[C@@H](O)[C@H](O)[C@H]1O)[C@H]1CC[C@@]2(C)C(CC[C@]3(C)C2C(=O)C=C2[C@@H]4C[C@@](C)(C(=O)O)CC[C@]4(C)CC[C@]23C)C1(C)C (some centres unmarked) [Compound 18] | 125 ± 15.9 µM | > 250 µM | 8 fold |  | 
COC(=O)[C@H]1O[C@@H](SCCN(C(C)=O)[C@H]2CC[C@@]3(C)C(CC[C@]4(C)C3C(=O)C=C3[C@@H]5C[C@@](C)(C(=O)O)CC[C@]5(C)CC[C@]34C)C2(C)C)[C@H](O)[C@@H](O)[C@@H]1O (some centres unmarked) [Compound 14] | 72.1 µM |  | approximately 14 fold |  | 
CC1(C)[C@@H](OC(=O)CCC(=O)O)CC[C@]2(C)[C@H]3C(=O)C=C4[C@@H]5C[C@@](C)(C(=O)O)CC[C@]5(C)CC[C@@]4(C)[C@]3(C)CC[C@@H]12 [CBX, carbenoxolone, reference compound] |  | 17.8 ± 2.3 µM |  | did not show any antiviral activity at nontoxic concentrations | toxic at low concentrations
CC1(C)C2CC[C@]3(C)C(C(=O)C=C4[C@@H]5C[C@@](C)(C(=O)O)CC[C@]5(C)CC[C@]43C)[C@@]2(C)CC[C@@H]1NC(=O)CCC(=O)O (some centres unmarked) [Compound 16, reference compound] | > 250 µM | > 250 µM |  | inactive | not toxic
CC1(C)[C@@H](O[C@H]2O[C@H](C(=O)O)[C@@H](O)[C@H](O)[C@H]2O[C@@H]2O[C@H](C(=O)O)[C@@H](O)[C@H](O)[C@H]2O)CC[C@]2(C)[C@H]3C(=O)C=C4[C@@H]5C[C@@](C)(C(=O)O)CC[C@]5(C)CC[C@@]4(C)[C@]3(C)CC[C@@H]12 [GL, glycyrrhizin] | 1030 ± 181 µM | > 2500 µM |  |  | 
